Patent publication US20090099218A1, “SYNTHESIS OF NOVEL TUBULIN POLYMERIZATION INHIBITORS: BENZOYLPHENYLUREA (BPU) SULFUR ANALOGS” (priority 2007, published 2009)

Columns and labels:
[1] = tested on: Panc1005; assay: MTT growth inhibition, pancreatic cell line Panc1005; assay type: cell-based; details: MTT assay, 96 h treatment, average of three independent experiments
Method: (§1) Eight of these analogs 6d, 6h, 6n, 6g, 7b, 7d, 8g, and 8h were tested for their cytotoxicity in seven pancreatic cell lines ASPC1, Panc1, Panc203, Panc430, Pane 1005, MiaPaca2, and HS766T using MTT assay. Cells were trypsinized, seeded at 5×10^3 cells/well in 96-well plate and allowed to grow for 24 hours before the treatment with exponential increasing concentrations of drugs in the presence of 10% FBS. After a 96-hours period of treatment, 20 μl of MTT solution (5 mg/ml in PBS) were added to each well, and the plates were then incubated for 3 hours at 37° C. Medium was then replaced with 100 μl of DMSO per well. Plates were shaken and the optical density was measured at 570 nm using a multiwell plate reader (Bio-Rad, Model 550, Bio-Rad Inc., Hercules, Calif.). Each experiment was performed in triplicate for each drug concentration and was carried out independently at least 3 times. The IC50 value was defined as the concentration needed for a 50% reduction in the absorbance calculated based on the survival curves. Response to drug treatment was assessed by standardizing treatment groups to untreated controls. Compounds activity was compared with compound 1.
(§2) Table 2 (Growth Inhibition of Pancreatic Cancer Cell Lines by BPU and BPTU Analogues (IC50) a) compares the cytotoxicity of a series of new derivatives against a panel of seven pancreatic cancer cell lines, as determined by MTT assay. See, Mosmann, T., J. Immunol. Methods 65:55-63 (1983).

[2] = tested on: CWR22R; assay: MTT growth inhibition, prostate cancer cell line CWR22R; assay type: cell-based, human; details: MTT assay, average of three independent experiments
[3] = tested on: HS766; assay: MTT growth inhibition, pancreatic cell line HS766; assay type: cell-based; details: MTT assay, 96 h treatment, average of three independent experiments
Method: as §1, §2

[4] = tested on: Panc203; assay: MTT growth inhibition, pancreatic cell line Panc203; assay type: cell-based; details: MTT assay, 96 h treatment, average of three independent experiments
Method: as §1, §2

[5] = tested on: MCF-7 cells; assay: Apoptosis of MCF-7 cells; assay type: cell-based; details: 48 hours
[6] = tested on: Panc1; assay: MTT growth inhibition, pancreatic cell line Panc1; assay type: cell-based; details: MTT assay, 96 h treatment, average of three independent experiments
Method: as §1, §2

[7] = tested on: LnCaP; assay: MTT growth inhibition, prostate cancer cell line LnCaP; assay type: cell-based, human; details: MTT assay, average of three independent experiments
Method: (§3) This MTT assay was carried using human prostate cancer cell lines CWR22R, LAPC-4 and LnCap using Promega cell titer 96 nonradioactive cell proliferation kits. Cells were trypsinized and centrifuged at 1000 rpm for 5 minutes and the supernatant was aspirated. Cells were resuspended with HBSS to a concentration of 10^6/ml. Cell suspension was diluted in serum containing medium to plate 2000 cells/well/0.2 ml. Cell suspension was transferred to sterile solution basin. Cells were plated using multichannel pipette set at 200 μl and incubated overnight for attachment. One plate was prepared for day 0 MTT assay as follows: 100 μl of media was removed from each well using multichannel pipette and 15 μl of MTT reagent was added. Plates were incubated at 37° C. for 4 hrs. […] of STOP solution was added to each well and incubated at room temperature for 1 hour. Absorbance was measured at 570 and 650 nm on plate reader. All the media from the remaining plates were carefully removed and the cells were treated with the media containing drug. MTT assays were done on days 0, 3, 5 and 7. In the preliminary screening […] BPU sulfur analogs 6l, 6h, 6n, 7d and 8h were screened and their activity was compared with compound 1.
(§4) Compounds with significant inhibitory activity in pancreatic cancer cells were further evaluated against prostate cancer cell lines in the MTT assay, (Mosmann, T., J. Immunol. Methods 65:55-63 (1983)) and the results were compared to those for compound 1 (Table 3).

[8] = tested on: Miapaca2; assay: MTT growth inhibition, pancreatic cell line Miapaca2; assay type: cell-based; details: MTT assay, 96 h treatment, average of three independent experiments
Method: as §1, §2

[9] = tested on: ASPC1; assay: MTT growth inhibition, pancreatic cell line ASPC1; assay type: cell-based; details: MTT assay, 96 h treatment, average of three independent experiments
Method: as §1, §2

[10] = tested on: LAPC-4; assay: MTT growth inhibition, prostate cancer cell line LAPC-4; assay type: cell-based, human; details: MTT assay, average of three independent experiments
Method: as §3, §4

[11] = tested on: Panc430; assay: MTT growth inhibition, pancreatic cell line Panc430; assay type: cell-based; details: MTT assay, 96 h treatment; average of three independent experiments
Method: as §1, §2

[12] = tested on: tubulin; assay: Inhibition of tubulin polymerization; assay type: biochemical; details: Tubulin was at 10 μM; read-out: tubulin IC50 ± SD (inhibition of tubulin polymerization)
Method: Briefly, tubulin polymerization was followed turbidimetrically at 350 nm in Beckman model DU7400 and DU7500 recording spectrophotometers equipped with electronic temperature controllers. […] Samples were pre-incubated for 15 min at 30° C. and chilled on ice. GTP (final concentration, 0.4 mmol/L) was added to each reaction mixture, and these were placed in cuvettes held at 0° C. Baselines were established, the temperature was raised to 30° C.

[13] = tested on: seven pancreatic cell lines; assay: MTT cytotoxicity, panel of seven pancreatic cancer cell lines; assay type: cell-based; details: Pancreatic cancer cell, all seven pancreatic cell lines
Method: as §1, §2

[14] = tested on: pancreas cancer xenografts; assay: In vivo growth inhibition of patient-derived pancreas cancer xenografts; parameters: species or system athymic nude mice
Method: Six-week-old female athymic nude mice (Harlan) were used. The research protocol was approved by the Johns Hopkins University Animal Care and Use Committee, and animals were maintained in accordance to guidelines of the American Association of Laboratory Animal Care. Surgical non-diagnostic specimens from patients who had undergone surgery at the Johns Hopkins Hospital were implanted s.c. in one to two mice for each patient, with two small pieces per mouse (F1 generation). Tumors were grown to 1.5 cm^3 and then harvested, divided into small ˜3×3×3 mm pieces, and transplanted to another five mice, with two tumors per mouse (F2 generation). After a second growth passage, tumors were excised and propagated to cohorts of ≧20 mice. These groups constituted the F3, or treatment cohort. Tumors from this third mouse-to-mouse passage were allowed to grow to ˜200 mm3, at which time mice were randomized into three treatment groups, with five to six mice (10 evaluable tumors) in each group: control (vehicle), 6n (50 mg/kg i.p. twice per week), and 7d (50 mg/kg i.p. twice per week). Docetaxel treatment was given to selected groups at a dose of 30 mg/kg i.p. once a week for 2 weeks. Mice were monitored daily for signs of toxicity and were weighed thrice per week. Tumor size was evaluated twice per week by caliper measurements using the following formula: tumor volume=[length×width^2]/2. Relative tumor growth inhibition was calculated by relative tumor growth of treated mice divided by relative tumor growth of control mice from the onset of therapy (T/C).
To assess the treatment effect, a hierarchical linear regression model was used with random intercepts and fixed slopes. Based on the results of exploratory plots, the assumption of fixed effects for slopes seemed reasonable. This model allowed for mouse effects to be nested within patient effects so that the hierarchical structure is fully accounted for. Specifically, the following linear regression model was fitted: log(γiJt)=a1ijtimeijt+b2jtimeijt×trtij+βtime^2ijt+eijt where j indexes patient, i indexes mouse, and t indexes time; yijt is the percentage change in tumor volume (compared with day 0) in mouse i, which is a xenograft for patient j at time t; and trtij is treatment (1=treated, 0=control) received by mouse i, which is a xenograft for patient j. […] An intercept and main effect of treatment were not included in the model that makes two assumptions: (a) at time 0, the change from baseline is 0 (which is empirically true), and (b) at baseline, the treated and untreated curves intersect. The model was fit using Win-Bugs software that estimates models using a Markov chain Monte Carlo estimation procedure. A burn-in of 10,000 iterations was done, and then the chain was run for an additional 20,000 iterations, of which every 10th iteration was saved for inference. Several chains were run with different starting values to ensure convergence. No convergence issues arose. The fitted model was used to make inferences with respect to the treatment effect and to create fitted regression lines (rescaled on the Y-axis for clearer interpretation). Point estimates of variables of interest (e.g., expected difference in tumor volume between treated and control at 28 days) and 95% credible intervals were based on the mean of posterior distributions and the 2.5th and 97.5th quantiles of the posterior distribution, respectively. The comparisons between means and proportions obtained from the biological studies were done using Student's t-test and χ^2 method, respectively. ANOVA was used when three or more variables were compared.
Tumors from nine cases of pancreatic cancer were used to establish xenografts in nude mice, and the animals were treated with either vehicle, 6n, or 7d (FIG. 36A). The level of efficacy varied both between drugs and within cases treated with each drug. FIG. 37 provides an integrated summary of all data points obtained in the studies. […]

Cc1cc(NC(=O)NC(=O)c2ccccc2N(C)C)ccc1Oc1ncc(Br)cn1 [Compound 1, reference compound]
IC50 [1]: 5 µM | IC50 [2]: 1 µM | IC50 [3]: 1 µM | IC50 [4]: 0.95 µM | rate of apoptosis ([5]; 10 nM): 16.1% | rate of apoptosis ([5]; 30 nM): 19.5% | rate of apoptosis ([5]; 100 nM): 27.7% | IC50 [6]: 0.7 µM | IC50 [7]: 0.5 µM | IC50 [8]: 0.85 µM | IC50 [9]: 0.85 µM | IC50 [10]: 0.25 µM | IC50 [11]: 0.8 µM

Brc1cnc(Sc2ccc(N=CON=COc3ccccc3)cc2)nc1 [Compound 6g]
IC50 ([1]; Homo sapiens, Panc1005): > 10 µM | IC50 ([3]; Homo sapiens, Hs 766): 5.5 µM | IC50 ([4]; Homo sapiens, Panc203): 7.5 µM | IC50 ([6]; Homo sapiens, PANC-1): > 10 µM | IC50 ([8]; Homo sapiens, MIA PaCa-2): 5 µM | IC50 ([9]; Homo sapiens, ASPC1): > 10 µM | IC50 [11]: 2 µM

Brc1cnc(Sc2ccc(N=CSN=COc3ccccc3)cc2)nc1 [Compound 6h]
IC50 ([1]; Homo sapiens, Panc1005): > 10 µM | IC50 ([2]; Homo sapiens, 22Rv1): > 10 µM | IC50 ([3]; Homo sapiens, Hs 766): 8.5 µM | IC50 ([4]; Homo sapiens, Panc203): > 10 µM | IC50 ([6]; Homo sapiens, PANC-1): 9.5 µM | IC50 ([7]; Homo sapiens, LNCaP): > 10 µM | IC50 ([8]; Homo sapiens, MIA PaCa-2): 10 µM | IC50 ([9]; Homo sapiens, ASPC1): 10 µM | IC50 ([10]; Homo sapiens, LAPC4): 6 µM | IC50 [11]: 7.5 µM

O=[N+]([O-])c1ccccc1OC=NOC=Nc1ccc(Sc2ncccn2)cc1 [Compound 6l]
IC50 ([2]; Homo sapiens, 22Rv1): 5 µM | IC50 ([7]; Homo sapiens, LNCaP): 0.5 µM | IC50 ([10]; Homo sapiens, LAPC4): 0.6 µM

Nc1ccccc1OC=NOC=Nc1ccc(Sc2ncccn2)cc1 [Compound 7b]
IC50 ([1]; Homo sapiens, Panc1005): > 10 µM | IC50 ([3]; Homo sapiens, Hs 766): 8 µM | IC50 ([4]; Homo sapiens, Panc203): 5.5 µM | IC50 ([6]; Homo sapiens, PANC-1): 7.5 µM | IC50 ([8]; Homo sapiens, MIA PaCa-2): 7 µM | IC50 ([9]; Homo sapiens, ASPC1): 6 µM | IC50 [11]: 6.5 µM

Nc1ccccc1C(=O)NC(=O)Nc1ccc(Oc2nccc(Br)n2)cc1 [Compound 7c]
IC50 [1]: > 10 µM | IC50 [2]: 2 µM | IC50 [3]: 0.27 µM | IC50 [4]: > 10 µM | IC50 [6]: 3.5 µM | IC50 [12]: 36 ± 0.7 µM | IC50 [7]: 0.75 µM | IC50 [8]: 0.92 µM | IC50 [9]: 5.2 µM | IC50 [10]: 0.75 µM | IC50 [11]: > 10 µM

O=[N+]([O-])c1ccccc1OC=NOC=Nc1ccc([S+]([O-])c2ncc(Br)cn2)cc1 (stereo not drawn) [Compound 8g]
IC50 ([1]; Homo sapiens, Panc1005): 5.5 µM | IC50 ([3]; Homo sapiens, Hs 766): 6.5 µM | IC50 ([4]; Homo sapiens, Panc203): 5.5 µM | IC50 ([6]; Homo sapiens, PANC-1): 6.5 µM | IC50 [13]: 2.5 to 8 µM | IC50 ([8]; Homo sapiens, MIA PaCa-2): 8 µM | IC50 ([9]; Homo sapiens, ASPC1): 2.5 µM | IC50 [11]: 5.5 µM

O=C(NC(=O)c1ccccc1[N+](=O)[O-])Nc1ccc(S(=O)(=O)c2ncc(Br)cn2)cc1 [Compound 8h, 1-[4-(5-Bromopyrimidine-2-sulfonyl)phenyl]-3-(2-nitrobenzoyl)-urea]
IC50 ([1]; Homo sapiens, Panc1005): > 10 µM | IC50 ([2]; Homo sapiens, 22Rv1): > 10 µM | IC50 ([3]; Homo sapiens, Hs 766): > 10 µM | IC50 ([4]; Homo sapiens, Panc203): > 10 µM | IC50 ([6]; Homo sapiens, PANC-1): > 10 µM | IC50 ([7]; Homo sapiens, LNCaP): 0.5 µM | IC50 ([8]; Homo sapiens, MIA PaCa-2): 6.1 µM | IC50 ([9]; Homo sapiens, ASPC1): > 10 µM | IC50 ([10]; Homo sapiens, LAPC4): 4 µM | IC50 [11]: > 10 µM

CC(=O)O[C@@]12CO[C@@H]1C[C@H](O)[C@@]1(C)C(=O)[C@H](O)C3=C(C)[C@@H](OC(=O)[C@H](O)[C@@H](NC(=O)OC(C)(C)C)c4ccccc4)C[C@@](O)([C@@H](OC(=O)c4ccccc4)[C@H]21)C3(C)C [Docetaxel, docetaxel, reference compound]
efficacy in case 194 ([14]; case with the greatest expression of MAPT): inactive | efficacy in case 185 ([14]; docetaxel 30 mg/kg i.p. once a week for 2 weeks): lower efficacy than 6n | efficacy in case 215 ([14]; low MAPT-expressing case, docetaxel 30 mg/kg i.p. once a week for 2 weeks): particularly efficacious
